Measured values from the supplement of paper PMC4862054.

Assays:
Experiment in all cases: normalised response (% of control), CellTiter-Glo; higher = more viable cells (100 = DMSO, 0 = benzethonium chloride kill control)
Settings in all cases: incubation time: 72 h
HDQ-P1 = test system: HDQ-P1
Procedure, shortened: (§1)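 Plates were normalised with 0.1 % DMSO as 100 and a positive kill control as 0. Breast cancer cell lines in 20 µl suspension had been seeded into 384-well plates with compound at 5 concentrations in 10-fold steps over a compound-specific 10,000-fold range, incubated 72 h, and read for CellTox Green fluorescence (485/520 nm) followed by CellTiter-Glo luminescence. Each value is the normalised signal at a single concentration.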

HCC1599 = test system: HCC1599
Procedure, shortened: as §1

MDA-MB-468 = test system: MDA-MB-468
Procedure, shortened: as §1

CAL-85-1 = test system: CAL-85-1
Procedure, shortened: as §1

MDA-MB-436 = test system: MDA-MB-436
Procedure, shortened: as §1

SK-BR-3 = test system: SK-BR-3
Procedure, shortened: as §1

Hs578T = test system: Hs578T
Procedure, shortened: as §1

CAL-51 = test system: CAL-51
Procedure, shortened: as §1

HCC1937 = test system: HCC1937
Procedure, shortened: as §1

MCF-10A = test system: MCF-10A
Procedure, shortened: as §1

BT-549 = test system: BT-549
Procedure, shortened: as §1

HCC1143 = test system: HCC1143
Procedure, shortened: as §1

MDA-MB-453 = test system: MDA-MB-453
Procedure, shortened: as §1

MFM-223 = test system: MFM-223
Procedure, shortened: as §1

DU-4475 = test system: DU-4475
Procedure, shortened: as §1

CAL-120 = test system: CAL-120
Procedure, shortened: as §1

CAL-148 = test system: CAL-148
Procedure, shortened: as §1

MDA-MB-231 = test system: MDA-MB-231
Procedure, shortened: as §1

BT-474 = test system: BT-474
Procedure, shortened: as §1

CCCC(CCC)C(=O)O [Valproic acid] (10000 nM)
normalised response (HDQ-P1): 102%
normalised response (HCC1599): 87.8%
normalised response (MDA-MB-468): 95.3%
normalised response (CAL-85-1): 100%
normalised response (MDA-MB-436): 105%
normalised response (SK-BR-3): 96.1%
normalised response (Hs578T): 99.3%
normalised response (CAL-51): 95.9%
normalised response (HCC1937): 95.9%
normalised response (MCF-10A): 106%
normalised response (BT-549): 107%
normalised response (HCC1143): 108%
normalised response (MDA-MB-453): 93.7%
normalised response (MFM-223): 96.1%
normalised response (DU-4475): 98.2%
normalised response (CAL-120): 111%
normalised response (CAL-148): 87%
normalised response (MDA-MB-231): 103%
normalised response (BT-474): 102%
